# Test results from patent publication US11999739B2, “Antimicrobials methods of making and using the same” (BIOVERSYS AG, priority 2016, dated 2024).
# Legend:
# [1] = tested on: Staphylococcus aureus (S. aureus) 11540 strain; assay: Standard microdilution MIC assay, S. aureus; type: cell-based
# How it was run: (§1)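 MICs obtained by CLSI-standard microdilution, quality-controlled with reference strains in parallel. Values reported as + or − relative to a 16 micrograms/mL cutoff.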
# [2] = tested on: Escherichia coli strain ATCC25922; assay: Standard microdilution MIC assay, E. coli; type: cell-based
# How it was run: as §1
MIC [1] [µg/mL],MIC [2] [µg/mL],SMILES
≤ 16,≤ 16,CC(=N)NCC[C@H](CO)N[C@@H](C)c1ccc(-n2cc3cc(-c4cc(CCC[C@@H](N)CF)cc(Cl)c4F)[nH]c3nc2=O)cc1F [Compound 178]
≤ 16,≤ 16,COC[C@H](N)CCCc1cc(OC(F)(F)F)c(F)c(-c2cc3cn(-c4ccc([C@@H]5CSC[C@@H](CCNC(C)=N)N5)cc4)c(=O)nc3[nH]2)c1 [Compound 270]
≤ 16,≤ 16,COc1ccc(CCC[C@H](C)N)cc1-c1cc2cn(-c3ccc([C@@H]4CCC[C@@H](CCNC(C)=N)N4)cc3)c(=O)nc2[nH]1 [Compound 377]
≤ 16,≤ 16,C[C@H](N)CCCc1cc(Cl)c(F)c(-c2cc3cn(-c4ccc([C@@H]5CCC[C@@H](CCNC(=N)CCO)N5)cc4)c(=O)nc3[nH]2)c1 [Compound 357]
≤ 16,≤ 16,COC[C@H](N)CCCc1cc(-c2cc3cn(-c4ccc([C@@H]5CCC[C@@H](CCNC(C)=N)N5)c(OC(F)(F)F)c4)c(=O)nc3[nH]2)c(F)c(C(F)(F)F)c1 [Compound 216]
≤ 16,≤ 16,C=C[C@H](N)CCCc1cc(Cl)c(F)c(-c2cc3cn(-c4ccc([C@H](C)N[C@@H](C=C)CCNC(C)=N)c(F)c4)c(=O)nc3[nH]2)c1 [Compound 184]
≤ 16,≤ 16,CSc1cc(-n2cc3cc(-c4cc(CCC[C@H](C)N)cc(Cl)c4F)[nH]c3nc2=O)cc(F)c1[C@@H]1CCC[C@@H](CCNC(C)=N)N1 [Compound 240]
≤ 16,≤ 16,CC(=N)NCC[C@@H]1CCC[C@@H](c2ccc(-n3cc4cc(-c5cc(CCC[C@H](C)N)cc(C(F)(F)F)c5)[nH]c4nc3=O)cc2)N1CCCF [Compound 293]
≤ 16,≤ 16,CC(=N)NCC[C@@H]1CCC[C@@H](c2c(F)cc(-n3cc4cc(-c5cc(CCC[C@@H](N)CF)cc(Cl)c5F)[nH]c4nc3=O)cc2F)N1 [Compound 279]
≤ 16,≤ 16,CC(=N)NCC[C@@H]1CCC[C@@H](c2ccc(-n3cc4cc(-c5cc(CCC[C@@H](N)C6CC6)cc(OC(F)(F)F)c5F)[nH]c4nc3=O)cc2OC(F)(F)F)N1 [Compound 213]
≤ 16,≤ 16,CC(=N)NCC[C@H](CO)NCc1ccc(-n2cc3cc(-c4cc(CCC[C@@H](N)CO)cc(Cl)c4F)[nH]c3nc2=O)cc1 [Compound 35]
≤ 16,≤ 16,COc1cc(-n2cc3cc(-c4cc(CCC[C@@H](N)C5CC5)cc(Cl)c4F)[nH]c3nc2=O)cc(F)c1[C@@H]1CCC[C@@H](CCNC(C)=N)N1 [Compound 321]
≤ 16,≤ 16,C=CC(CCNC(=N)CSC)NCc1ccc(-n2cc3cc(-c4cc(CCC[C@H](C)N)cc(Cl)c4F)[nH]c3nc2=O)cc1 (stereo partly shown) [Compound 9]
≤ 16,≤ 16,CC(=N)NCC[C@@H]1CCC[C@@H](c2ccc(-n3cc4cc(-c5cc(CCC[C@H](C)N)cc(C(F)(F)F)c5)[nH]c4nc3=O)cc2)N1 [Compound 172]
≤ 16,≤ 16,CC(=N)NCC[C@@H]1CCC[C@@H](c2ccc(-n3cc4cc(-c5cc(Cl)cc(CCC[C@H](C)N)c5)[nH]c4nc3=O)cc2)N1 [Compound 370]
≤ 16,≤ 16,CC(=N)NCC[C@@H]1COC[C@@H](c2ccc(-n3cc4cc(-c5cc(CCCC(C)(C)N)cc(Cl)c5F)[nH]c4nc3=O)cc2)N1 [Compound 68]
≤ 16,≤ 16,CC(=N)NCC[C@@H]1CCC[C@@H](c2ccc(-n3cc4cc(-c5cc(CCC(F)(F)CN)cc(Cl)c5F)[nH]c4nc3=O)cc2)N1C [Compound 135]
≤ 16,≤ 16,COCCC(=N)NCC[C@@H]1CCC[C@@H](c2ccc(-n3cc4cc(-c5cc(CCC[C@H](C)N)cc(Cl)c5F)[nH]c4nc3=O)cc2)N1 [Compound 348]

MIC [1] [µg/mL],MIC [2] [µg/mL],SMILES
≤ 16,≤ 16,C=C[C@H](N)CCCc1cc(Cl)c(F)c(-c2cc3cn(-c4ccc([C@@H]5CCC[C@@H](CCNC(=N)C(Cl)(Cl)Cl)N5)c(F)c4)c(=O)nc3[nH]2)c1 [Compound 185]
≤ 16,≤ 16,CC(=N)NCC[C@@H]1CCC[C@@H](c2ccc(-n3cc4cc(-c5cc(CCC[C@@H](N)C6CC6)cc(Cl)c5F)[nH]c4nc3=O)cc2)N1 [Compound 78]
≤ 16,≤ 16,CSc1cc(-n2cc3cc(-c4cc(CCC[C@@H](N)C5CC5)cc(C(F)(F)F)c4)[nH]c3nc2=O)cc(F)c1[C@@H]1CCC[C@@H](CCNC(C)=N)N1 [Compound 286]
≤ 16,≤ 16,C=C[C@@H](N)CCCc1cc(Cl)c(F)c(-c2cc3cn(-c4ccc([C@@H]5CCC[C@@H](CCNC(C)=N)N5)c(SC)c4)c(=O)nc3[nH]2)c1 [Compound 128]
≤ 16,≤ 16,CSCC(=N)NCC[C@@H]1CCC[C@@H](c2ccc(-n3cc4cc(-c5cc(CCC[C@H](C)N)cc(Cl)c5F)[nH]c4nc3=O)cc2)N1 [Compound 42]
≤ 16,≤ 16,CC(=N)NCC[C@@H](NCc1ccc(-n2cc3cc(-c4cc(CCC[C@@H](N)C5CC5)cc(Cl)c4F)[nH]c3nc2=O)cc1)C1CC1 [Compound 219]
≤ 16,≤ 16,C=C[C@@H](CCNC(C)=N)N[C@@H](C)c1ccc(-n2cc3cc(-c4cc(CCC[C@H](C)N)cc(Cl)c4F)[nH]c3nc2=O)cc1F [Compound 183]
≤ 16,≤ 16,C[C@H](N)CCCc1cc(Cl)c(F)c(-c2cc3cn(-c4ccc([C@@H]5CNC[C@@H](CCNC(=N)CF)N5)cc4)c(=O)nc3[nH]2)c1 [Compound 51]
≤ 16,≤ 16,CSc1cc(-n2cc3cc(-c4cc(CCC[C@H](C)N)cc(Cl)c4F)[nH]c3nc2=O)ccc1[C@@H]1CCC[C@@H](CCNC(C)=N)N1 [Compound 115]
≤ 16,≤ 16,C=C[C@@H](N)CCCc1cc(Cl)c(F)c(-c2cc3cn(-c4ccc([C@H](CO)NCCCNC(C)=N)cc4)c(=O)nc3[nH]2)c1 [Compound 158]
≤ 16,≤ 16,CC(=N)NCC[C@@H]1CCC[C@@H](c2ccc(-n3cc4cc(-c5cc(CCC[C@@H](N)C6CC6)cc(C(F)(F)F)c5F)[nH]c4nc3=O)cc2)N1 [Compound 212]
≤ 16,≤ 16,C=C[C@H](N)CCCc1cc(-c2cc3cn(-c4ccc([C@@H]5CCC[C@@H](CCNC(C)=N)N5CCCF)c(F)c4)c(=O)nc3[nH]2)cc(C(F)(F)F)c1 [Compound 349]
≤ 16,≤ 16,N=C(CF)NCC[C@H](CO)NCc1ccc(-n2cc3cc(-c4cc(CCC[C@@H](N)C5CC5)cc(Cl)c4F)[nH]c3nc2=O)cc1 [Compound 85]
≤ 16,≤ 16,CC(=N)NCCCN[C@@H](C)c1ccc(-n2cc3cc(-c4cc(CCC(F)(F)CN)cc(Cl)c4F)[nH]c3nc2=O)cc1F [Compound 106]
≤ 16,≤ 16,CC(=N)NCCCNCc1ccc(-n2cc3cc(-c4cc(CCC[C@H](C)N)cc(Cl)c4F)[nH]c3nc2=O)cc1F [Compound 76]
≤ 16,≤ 16,CC(=N)NCC[C@@H]1CNC[C@H](c2ccc(-n3cc4cc(-c5cc(CCC[C@H](C)N)cc(Cl)c5F)[nH]c4nc3=O)cc2)N1 [Compound 45]
≤ 16,≤ 16,CSc1cc(-n2cc3cc(-c4cc(CCC[C@H](C)N)cc(Cl)c4F)[nH]c3nc2=O)ccc1[C@@H]1CCC[C@@H](CCNC(C)=N)N1CCCF [Compound 331]
